According to patent US20050187244A1 (Entire Interest., priority 2004, published 2005):

Legend:
[1] = powder; cited from earlier work
[2] = Solid form transformation on drying; format: physicochemical; conditions: drying under heating, preferably 50 C. overnight under vacuum, about 10-100 mm Hg; monosodium salt
Experimental: The various forms are related in that drying of one form may lead to another form. Drying may be carried out under ambient or reduced pressure under heating. The temperature during heating is preferably about 40° C. to about 60° C., more preferably about 40° C. to about 50° C. The drying for a few days, such as about two days may be sufficient for transformation. In a preferred embodiment, drying is performed at 50C. overnight under vacuum, about 10-100 mm Hg.
Some solutions were stirred at room temperature; others were heated to the indicated temperature. The precipitate was recovered by filtration and washed with the solvent (5 mL) to obtain a wet sample. A portion of the wet sample was dried overnight in a vacuum at 50° C. at 10-50 mm Hg to obtain a dry sample. The wet and dry samples were analyzed by X-ray diffraction.

[3] = Solid form transformation while stirred in organic solvent (slurry); format: physicochemical; conditions: stirred in an organic solvent for more than about 2 days, e.g. dichloromethane and optionally heptane
Description: The various forms are related in that one form may transform to another while in an organic solvent, such as a slurry resulting from crystallization. […] Such transformation occurs for example in a reaction mixture containing dichloromethane and optionally a C5 to C12 hydrocarbon such as heptane.

SMILES | hygroscopicity [1] | form obtained on drying [2] | form transformation in organic solvent [3]
CC(C)(O)c1ccccc1CC[C@@H](SCC1(CC(=O)[O-])CC1)c1cccc(/C=C/c2ccc3ccc(Cl)cc3n2)c1.[Na+] [Montelukast sodium, [R-(E)]-1-[[[1-[3-[2-(7-chloro-2-quinolinyl)ethenyl]phenyl]-3-[2-(1-hydroxy-1-methylethyl)phenyl]propyl]thio]methyl]cyclopropaneacetic acid, monosodium salt] | hygroscopic |  | 
CC(C)(O)c1ccccc1CC[C@@H](SCC1(CC(=O)[O-])CC1)c1cccc(/C=C/c2ccc3ccc(Cl)cc3n2)c1.[Na+] [Form B1, [R-(E)]-1-[[[1-[3-[2-(7-chloro-2-quinolinyl)ethenyl]phenyl]-3-[2-(1-hydroxy-1-methylethyl)phenyl]propyl]thio]methyl]cyclopropaneacetic acid, monosodium salt] |  | Form C | transforms to Form C
CC(C)(O)c1ccccc1CC[C@@H](SCC1(CC(=O)[O-])CC1)c1cccc(/C=C/c2ccc3ccc(Cl)cc3n2)c1.[Na+] [Form B2, [R-(E)]-1-[[[1-[3-[2-(7-chloro-2-quinolinyl)ethenyl]phenyl]-3-[2-(1-hydroxy-1-methylethyl)phenyl]propyl]thio]methyl]cyclopropaneacetic acid, monosodium salt] |  | Form B1 or form C | 
